Test results from ChEMBL document CHEMBL1201862, “PubChem BioAssay data set” (2004).
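A five-concentration, 48-hour dose response in 96-well plates underlies each endpoint, interpolated linearly between surrounding concentrations. GI50 marks 50% less growth.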 Active and inactive are the calls of the source. No stated cut-off is given here; in the data, active = GI50 up to about 1.1 µM and inactive = higher.

Tests used:
Assay in all cases: growth of human tumour cells (NCI), 48 h
DU-145 = test system: DU-145
NCI-H460 = test system: NCI-H460
IGROV-1 = test system: IGROV-1
MDA-MB-435 = test system: MDA-MB-435
HOP-62 = test system: HOP-62
HL-60 = test system: HL-60
NCI-H226 = test system: NCI-H226
OVCAR-3 = test system: OVCAR-3
SF-539 = test system: SF-539
OVCAR-5 = test system: OVCAR-5
M14 = test system: M14
SF-268 = test system: SF-268
COLO 205 = test system: COLO 205
SNB-75 = test system: SNB-75
HCT-116 = test system: HCT-116
PC-3 = test system: PC-3
HOP-92 = test system: HOP-92
HCC 2998 = test system: HCC 2998
HCT-15 = test system: HCT-15
SK-MEL-5 = test system: SK-MEL-5

Structure (SMILES)	GI50 (DU-145)	GI50 (NCI-H460)	GI50 (IGROV-1)	GI50 (MDA-MB-435)	GI50 (HOP-62)	GI50 (HL-60)	GI50 (NCI-H226)	GI50 (OVCAR-3)	GI50 (SF-539)	GI50 (OVCAR-5)	GI50 (M14)	GI50 (SF-268)	GI50 (COLO 205)	GI50 (SNB-75)	GI50 (HCT-116)	GI50 (PC-3)	GI50 (HOP-92)	GI50 (HCC 2998)	GI50 (HCT-15)	GI50 (SK-MEL-5)
CC(C)(C)OC(=O)NC(Cc1ccccc1)C(=O)OCN1C(=O)C2C3C=CC(C2C1=O)C1C2C(=O)N(COC(=O)C(Cc4ccccc4)NC(=O)OC(C)(C)C)C(=O)C2C31 (centres undefined)	41.6 µM (inactive)	3.82 µM (inactive)	30.4 µM (inactive)	53.7 µM (inactive)	30.4 µM (inactive)	30.7 µM (inactive)	29.4 µM (inactive)	63.1 µM (inactive)	42.4 µM (inactive)	53.3 µM (inactive)	38.9 µM (inactive)	38.5 µM (inactive)	8.22 µM (inactive)	19 µM (inactive)	19.2 µM (inactive)	29.5 µM (inactive)	86.5 µM (inactive)	40 µM (inactive)	43.2 µM	28 µM (inactive)
CCCCCCCC(CC(=O)NC(CO)C(=O)NC(CO)CC(C)C)OC(=O)CC(CCCCCCC)OC(=O)CC(CCCCCCC)OC1OC(C)C(O)C(OC2OC(C)C(OC(C)=O)C(O)C2O)C1O (centres undefined)	11.8 µM (inactive)	3.97 µM (inactive)	10.7 µM (inactive)	6.53 µM (inactive)	17.1 µM (inactive)	2.92 µM (inactive)	16.6 µM (inactive)	11.8 µM (inactive)	11 µM (inactive)	10.1 µM (inactive)	3.67 µM (inactive)	8.28 µM (inactive)	2.52 µM (inactive)	4.59 µM (inactive)	4.84 µM (inactive)	4.04 µM (inactive)	8.91 µM (inactive)	5.05 µM (inactive)	–	10 µM (inactive)
O=c1oc2ccc([N+](=O)[O-])cc2c(Nc2ccc3c(c2)Oc2ccccc2O3)c1[N+](=O)[O-]	59.7 µM (inactive)	30 µM (inactive)	28.6 µM (inactive)	37.1 µM (inactive)	38.9 µM (inactive)	21.3 µM (inactive)	32.4 µM (inactive)	47.3 µM (inactive)	25.4 µM (inactive)	38 µM (inactive)	30.1 µM (inactive)	48.1 µM (inactive)	21.7 µM (inactive)	40.9 µM (inactive)	29 µM (inactive)	25 µM (inactive)	19.2 µM (inactive)	27.7 µM (inactive)	31.1 µM	29.1 µM (inactive)
CSCCC(NCc1c(O)ccc2ccc(=O)oc12)C(=O)O (centres undefined)	> 100 µM (inactive)	> 100 µM (inactive)	> 100 µM (inactive)	70.8 µM (inactive)	> 100 µM (inactive)	> 100 µM (inactive)	> 100 µM (inactive)	> 100 µM (inactive)	> 100 µM (inactive)	> 100 µM (inactive)	> 100 µM (inactive)	> 100 µM (inactive)	> 100 µM (inactive)	16.9 µM (inactive)	> 100 µM (inactive)	> 100 µM (inactive)	> 100 µM (inactive)	> 100 µM (inactive)	> 100 µM	61.5 µM (inactive)
O=C(O)c1cc2c(s1)C(=O)c1sccc1C2=O	2.33 µM (inactive)	17.3 µM (inactive)	17.1 µM (inactive)	0.774 µM (active)	6.11 µM (inactive)	4.18 µM (inactive)	19.6 µM (inactive)	4.81 µM (inactive)	1.95 µM (inactive)	9.91 µM (inactive)	1.43 µM (inactive)	5.24 µM (inactive)	17.2 µM (inactive)	1.82 µM (inactive)	2.22 µM (inactive)	9.82 µM (inactive)	16.3 µM (inactive)	18.7 µM (inactive)	3.93 µM	1.82 µM (inactive)
CCOC(=O)N1c2ccccc2N(C(=O)OCC)C1CC(=O)/C=C/c1ccccc1	2.69 µM (inactive)	3.03 µM (inactive)	3.63 µM (inactive)	2.74 µM (inactive)	3.99 µM (inactive)	2.61 µM (inactive)	2.81 µM (inactive)	3.13 µM (inactive)	–	2.65 µM (inactive)	4.45 µM (inactive)	2.37 µM (inactive)	2.04 µM (inactive)	3.34 µM (inactive)	3.3 µM (inactive)	3.94 µM (inactive)	1.97 µM (inactive)	3 µM (inactive)	2.98 µM	2.47 µM (inactive)
CN1CCN(c2ccc3nc(C4=C(O)C(=O)[C@@H]5C(=C4O)N=C(CO)N5C)[nH]c3n2)CC1	> 100 µM (inactive)	> 100 µM (inactive)	> 100 µM (inactive)	93.8 µM (inactive)	> 100 µM (inactive)	40.2 µM (inactive)	> 100 µM (inactive)	91 µM (inactive)	33.5 µM (inactive)	> 100 µM (inactive)	> 100 µM (inactive)	74.3 µM (inactive)	80.5 µM (inactive)	97.3 µM (inactive)	94.2 µM (inactive)	69.8 µM (inactive)	55 µM (inactive)	68.4 µM (inactive)	> 100 µM	–
CC1(C)OC2OC(C(COS(=O)(=O)C(F)(F)F)N=[N+]=[N-])C(OC(=O)c3ccccc3)C2O1 (centres undefined)	> 100 µM (inactive)	> 100 µM (inactive)	–	> 100 µM (inactive)	> 100 µM (inactive)	> 100 µM (inactive)	> 100 µM (inactive)	> 100 µM (inactive)	> 100 µM (inactive)	> 100 µM (inactive)	> 100 µM (inactive)	> 100 µM (inactive)	> 100 µM (inactive)	53.1 µM (inactive)	> 100 µM (inactive)	> 100 µM (inactive)	> 100 µM (inactive)	> 100 µM (inactive)	> 100 µM	> 100 µM (inactive)
COc1cccc(-c2cc(O)c3cc(N4CCN(C)CC4)ccc3n2)c1	3.21 µM (inactive)	2.99 µM (inactive)	3.2 µM (inactive)	0.225 µM (active)	1.64 µM (inactive)	0.537 µM (active)	1.71 µM (inactive)	–	0.557 µM (active)	5.14 µM (inactive)	1.99 µM (inactive)	1.91 µM (inactive)	1.67 µM (inactive)	5.3 µM (inactive)	0.543 µM (active)	2.44 µM (inactive)	1.06 µM (active)	2.01 µM (inactive)	1.75 µM	0.454 µM (active)
COc1ccc(/C=N/NS(=O)(=O)c2ccc(/C=C3\NC(=O)N(C)C3=O)cc2)cc1	> 100 µM (inactive)	37.5 µM (inactive)	43.6 µM (inactive)	> 100 µM (inactive)	40.2 µM (inactive)	67 µM (inactive)	> 100 µM (inactive)	40.6 µM (inactive)	–	> 100 µM (inactive)	> 100 µM (inactive)	37.8 µM (inactive)	> 100 µM (inactive)	45.6 µM (inactive)	> 100 µM (inactive)	80.2 µM (inactive)	58.7 µM (inactive)	> 100 µM (inactive)	> 100 µM	> 100 µM (inactive)
